For data set [1] the following is noted: in vivo; cited from earlier work.
For data set [2], the system named is patients with coronary heart disease. Conditions: cited from earlier work.
Data set [3] can be described thus: Solubilities of molsidomine in various solvents (saturation at 32° C., HPLC). It counts as physicochemical.
Protocol: Molsidomine powder was weighed on weighing paper and transferred into the sample vial. Solvent was transferred into the vial followed by insertion of a small Teflon-coated magnetic stirring bar. The sample vial was screw-capped and placed on top of a multiple stirring system obtained from Florida Scientific, Inc. and housed in an incubation oven at 32° C. The sample solutions were examined for saturation. More molsidomine was added to the solutions until saturation was achieved.
The saturated solutions were filtered through a micro filter to remove excess solid molsidomine. The filtered samples were then assayed for molsidomine concentration by the HPLC analytical method.
In this way, the solubility of molsidomine in the particular vehicle(s) was estimated.
The conditions of data set [4]: cited from earlier work.
The next data set has as its system coronary strips. The settings on record: cited from earlier work; for dependence of vasodilation action on cysteine: presence / absence of cysteine.
For data set [5] the following is noted: oral dose of 2 mg; cited from earlier work.
The conditions of data set [6]: cited from earlier work. This is another data set of the same source.
For data set [7], the system named is human cadaver epidermis. Conditions: pH 6.8.
For data set [8], the system named is soluble guanylate cyclase. Conditions: by nitric oxide liberated from the active metabolite SIN-1A; cited from earlier work.
The subject of data set [9] is human cadaver epidermis. Put plainly: Skin flux through human cadaver epidermis (modified Franz vertical diffusion cell, 32° C).
The subject of the next data set is human skin. Conditions: in vivo; cited from earlier work.

In brackets after ≈: the same amount, converted by molar mass. Entries after “also recorded” stand apart in the source; their conditions may differ. Read-outs that look alike come from different tables or passages of the source.

In the case of `CCOC(=O)[N-]c1cn(N2CCOCC2)n[o+]1` [Molsidomine, N-5-ethoxycarbonyl-3-morpholinosydnonimine], in [1], the metabolism entry is given as “can be metabolized to SIN-1”. Besides, in [2] (daily oral dosing of 2 mg for 3 to 4 times, clinical studies), the “treatment and prevention of anginal pectoris” value was “effective”. In data set [2] (human, in vivo), the anti-anginal effect result is “sustained anti-anginal effect”. For the same compound, the “duration of anti-anginal effects” value in data set [2] (single oral dose of 2 mg, patients with coronary heart disease) was 3 to 5 h. Besides, the solubility was 12.3 ± 1.8 mg/mL (≈ 50.8 mM) in [3] (aqueous buffer, Phosphate buffer pH 5.68, read-out: Solubilities); 85.5 ± 3.9 mg/mL (≈ 353 mM) in data set [3] (organic solvent or mixture, Propylene Glycol (PG), read-out: Solubilities); roughly 90 mg/mL (≈ 372 mM) in data set [3] (organic solvent or mixture, propylene glycol and propylene glycol with 10% of oleic acid, lauryl alcohol or PGML, read-out: solubility); 12.1 ± 1.3 mg/mL (≈ 50 mM) in [3] (pH 6.8, aqueous buffer, Phosphate buffer pH 6.80, read-out: Solubilities); 89.3 ± 1.5 mg/mL (≈ 369 mM) in [3] (propylene glycol:lauryl alcohol (10%), organic solvent or mixture, PG:Lauryl Alcohol (10%), read-out: Solubilities); 88.1 ± 0.7 mg/mL (≈ 364 mM) in [3] (propylene glycol:oleic acid (10%), organic solvent or mixture, PG:Oleic Acid (10%), read-out: Solubilities). Moreover, in data set [3] (propylene glycol:pgml (10%), organic solvent or mixture, PG:PGML (10%), read-out: Solubilities), the solubility was determined as 92.9 ± 2.8 mg/mL (≈ 384 mM). The Saturated solubility in data set [4] (Glycerin, 25° C.) is on record as 1.80%; in data set [4] (Glycol salicylate, 25° C.), 15.1%; in data set [4] (Isopropyl myristate, 25° C.), 0.09%; in data set [4] (Octyl.decyl oil, 25° C.), 0.36%; in data set [4] (Oleic Acid, 25° C.), 1.37%; in data set [4] (PEG 400, 25° C.), 5.23%. For the same compound, the “Solubility (in words)” value was “Freely soluble” in [4] (in CHCl3); “Soluble” in data set [4] (in dil HCl, ethanol, ethyl acetate and methanol); “very slightly soluble” in data set [4] (in ether, petr ether); “soluble” in data set [4] (in propylene glycol and a variety of organic solvents); “sparingly soluble” in [4] (in water, acetone, benzene). Moreover, the tolerance entry in the data set on coronary strips is given as “insignificant tolerance”. Besides, the total clearance in data set [5] was 46,000 ml/hr. Besides, the “Chemical stability (in words)” value in [6] (aqueous solution of pH 5 to 7) was “very stable; also recorded: most stable”. The t90 is 38 days in data set [6] (pH 1-2, 20° C.); 250 days in [6] (pH 4, 20° C.); 950 days in data set [6] (pH 5-7, 20° C.); 400 days in data set [6] (pH 10, 20° C.); 40 days in [6] (pH 11, 20° C.). For the same compound, the Photosensitivity entry in data set [6] (particularly in sunlight) is reported as “photosensitive”. For the same compound, the “skin flux from aqueous solution” value in the data set on human cadaver epidermis [7] is 9.7±1.9 μg/hr-cm^2.
`O=[N+]([O-])OCC(CO[N+](=O)[O-])O[N+](=O)[O-]` [nitroglycerin]: in the data set with coronary strips, the tolerance entry was “tolerance toward the drug developed in coronary strips can be antagonized by cysteine” and the “dependence of vasodilation action on cysteine” value is on record as “depends on the presence of cysteine”.
As for `N#CCN(N=O)N1CCOCC1` [SIN-1A], the “activation of soluble guanylate cyclase” value in data set [8] was “activates the soluble guanylate cyclase”. The “dependence of vasodilation action on cysteine” value with coronary strips is “active in both the presence and absence of cysteine”.
For `CCCCCCCCCCCCOP(=O)(O)O` [mono-dodecyl phosphate (DDPO4), phosphoric acid mono-dodecyl ester], the “permeation enhancement of molsidomine (increment of skin flux)” value in the data set with human cadaver epidermis [9] (addition of 10% DDPO4 to PGML, FIG. 3) is “four times increment”. Besides, in the data set with human cadaver epidermis [9] (pirsidomine), the “pirsidomine skin permeation enhancement” value was “showed pirsidomine skin permeation enhancement”. Further, in the data set with human skin, the “human skin irritation potential” value was “very low human skin irritation potential”.
